According to patent US9840513B2 (AbbVie S.à.r.l., priority 2015, dated 2017):

Biological target: T1, F508delCFTR cell surface expression in CFBE41o-F508delCFTR-HRP cells (Homo sapiens, UniProt P13569, DEL508-508)
T1 construct: fused on or other part: Horseradish peroxidase (HRP) reporter inserted in the fourth exofacial (extracellular) loop of CFTR; expression is doxycycline-inducible
Test: Cell Surface Expression-Horse Radish Peroxidase (CSE-HRP) Assay
Assay type: cell-based
Conditions: for EC50: CFBE41o-F508delCFTR-HRP cells, 18-24 hours at 33° C., 8-point curve, highest concentration 20 μM; for Maximum % activity (%): maximum at any tested concentration, normalized to on-plate positive control (3 μM)
How it was run: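 Correctors incubated 18-24 h at 33 °C on doxycycline-induced (0.5 μg/mL, 72 h) CFBE41o-F508delCFTR-HRP cells, 3-fold series from 20 μM. After DPBS washes, luminol luminescence read; activity expressed relative to DMSO and a 3 μM positive control, EC50 fitted from triplicate plates.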

T1 sequence (P13569 with tags, fused parts or gaps DEL508-508 limits assumed): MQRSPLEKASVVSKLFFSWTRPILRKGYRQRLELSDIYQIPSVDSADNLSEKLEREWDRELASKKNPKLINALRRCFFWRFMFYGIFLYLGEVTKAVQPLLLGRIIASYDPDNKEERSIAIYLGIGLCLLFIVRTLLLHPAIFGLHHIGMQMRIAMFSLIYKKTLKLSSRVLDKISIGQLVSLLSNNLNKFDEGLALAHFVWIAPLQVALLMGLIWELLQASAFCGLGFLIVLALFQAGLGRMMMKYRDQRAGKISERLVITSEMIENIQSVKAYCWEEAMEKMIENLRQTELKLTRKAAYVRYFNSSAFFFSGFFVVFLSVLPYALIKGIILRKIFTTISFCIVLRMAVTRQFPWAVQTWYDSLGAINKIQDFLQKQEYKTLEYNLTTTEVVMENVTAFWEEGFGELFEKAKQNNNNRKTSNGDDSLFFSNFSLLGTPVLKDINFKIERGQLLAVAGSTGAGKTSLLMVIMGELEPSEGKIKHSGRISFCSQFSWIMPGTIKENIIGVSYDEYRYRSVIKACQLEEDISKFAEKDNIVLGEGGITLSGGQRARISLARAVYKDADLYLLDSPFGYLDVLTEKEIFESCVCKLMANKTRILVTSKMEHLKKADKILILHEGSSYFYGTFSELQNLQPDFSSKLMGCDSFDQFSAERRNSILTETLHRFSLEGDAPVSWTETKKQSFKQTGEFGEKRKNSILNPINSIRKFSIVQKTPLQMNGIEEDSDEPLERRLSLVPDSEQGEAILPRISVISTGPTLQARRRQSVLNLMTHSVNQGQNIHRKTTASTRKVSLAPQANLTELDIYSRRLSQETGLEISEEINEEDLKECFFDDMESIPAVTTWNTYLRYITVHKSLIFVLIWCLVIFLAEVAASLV
T1 sequence (P13569 919-1480 limits assumed, stated change not applied): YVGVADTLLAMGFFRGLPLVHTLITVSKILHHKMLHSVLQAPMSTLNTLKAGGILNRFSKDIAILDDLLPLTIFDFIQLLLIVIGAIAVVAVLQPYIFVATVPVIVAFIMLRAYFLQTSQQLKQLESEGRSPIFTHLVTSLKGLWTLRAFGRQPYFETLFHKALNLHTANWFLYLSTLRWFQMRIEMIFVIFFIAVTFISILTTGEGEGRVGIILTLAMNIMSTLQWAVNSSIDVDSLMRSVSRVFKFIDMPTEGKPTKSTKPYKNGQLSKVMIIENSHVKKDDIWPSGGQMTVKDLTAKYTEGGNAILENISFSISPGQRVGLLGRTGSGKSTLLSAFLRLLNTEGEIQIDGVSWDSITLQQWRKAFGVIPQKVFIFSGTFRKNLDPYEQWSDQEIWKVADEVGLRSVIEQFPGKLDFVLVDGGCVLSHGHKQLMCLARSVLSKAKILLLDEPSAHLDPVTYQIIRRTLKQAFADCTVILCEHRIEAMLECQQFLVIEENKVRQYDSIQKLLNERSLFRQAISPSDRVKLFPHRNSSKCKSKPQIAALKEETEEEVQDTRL

SMILES	EC50 [nM]	Maximum % activity (%)
C[C@]1(C(=O)Nc2cc(-c3ccccc3)nn(C[C@H](O)[C@H](O)CO)c2=O)COc2cc3c(cc21)OC(F)(F)O3 [Example 105, (7R)-2,2-difluoro-7-methyl-N-{3-oxo-6-phenyl-2-[(2S,3R)-2,3,4-trihydroxybutyl]-2,3-dihydropyridazin-4-yl}-6,7-dihydro-2H-furo[2,3-f][1,3]benzodioxole-7-carboxamide]	> 20000	5
CC1(C)OC[C@H]([C@H](O)Cn2nc(-c3ccccc3)cc(NC(=O)[C@@]3(C)COc4cc5c(cc43)OC(F)(F)O5)c2=O)O1 [Example 106, (7R)—N-(2-{(2R)-2-[(4R)-2,2-dimethyl-1,3-dioxolan-4-yl]-2-hydroxyethyl}-3-oxo-6-phenyl-2,3-dihydropyridazin-4-yl)-2,2-difluoro-7-methyl-6,7-dihydro-2H-furo[2,3-f][1,3]benzodioxole-7-carboxamide]	14100	18
CN1CC2CN(c3cccc(NC(=O)C4(C)COc5cc6c(cc54)OC(F)(F)O6)n3)CC2C1 (stereo not drawn) [Example 107, 2,2-difluoro-7-methyl-N-[6-(5-methylhexahydropyrrolo[3,4-c]pyrrol-2(1H)-yl)pyridin-2-yl]-6,7-dihydro-2H-furo[2,3-f][1,3]benzodioxole-7-carboxamide]	3040	136
CC(C)CN1CC2CN(c3cccc(NC(=O)C4(C)COc5cc6c(cc54)OC(F)(F)O6)n3)CC2C1 (stereo not drawn) [Example 108, 2,2-difluoro-7-methyl-N-{6-[5-(2-methylpropyl)hexahydropyrrolo[3,4-c]pyrrol-2(1H)-yl]pyridin-2-yl}-6,7-dihydro-2H-furo[2,3-f][1,3]benzodioxole-7-carboxamide]	1990	89
C[C@]1(C(=O)Nc2cccc(N3CCC(S(C)(=O)=O)C3)n2)COc2cc3c(cc21)OC(F)(F)O3 (stereo partly drawn) [Example 109, (7R)-2,2-difluoro-N-{6-[3-(methanesulfonyl)pyrrolidin-1-yl]pyridin-2-yl}-7-methyl-6,7-dihydro-2H-furo[2,3-f][1,3]benzodioxole-7-carboxamide]	580	89
C[C@]1(C(=O)Nc2cccc(N3CCC(CO)(CCl)C3)n2)COc2cc3c(cc21)OC(F)(F)O3 (stereo partly drawn) [Example 110, (7R)—N-{6-[3-(chloromethyl)-3-(hydroxymethyl)pyrrolidin-1-yl]pyridin-2-yl}-2,2-difluoro-7-methyl-6,7-dihydro-2H-furo[2,3-f][1,3]benzodioxole-7-carboxamide]	3020	120
C[C@]1(C(=O)Nc2cccc(N3CC[C@@H](S(C)(=O)=O)C3)n2)COc2cc3c(cc21)OC(F)(F)O3 [Example 111, (7R)-2,2-difluoro-N-{6-[(3R)-3-(methanesulfonyl)pyrrolidin-1-yl]pyridin-2-yl}-7-methyl-6,7-dihydro-2H-furo[2,3-f][1,3]benzodioxole-7-carboxamide]	540	91
COC(=O)[C@H]1CN(c2cccc(NC(=O)[C@@]3(C)COc4cc5c(cc43)OC(F)(F)O5)n2)C[C@@H]1c1ccccc1 [Example 112, methyl (3R,4S)-1-(6-{[(7R)-2,2-difluoro-7-methyl-6,7-dihydro-2H-furo[2,3-f][1,3]benzodioxole-7-carbonyl]amino}pyridin-2-yl)-4-phenylpyrrolidine-3-carboxylate]	990	131
C[C@]1(C(=O)Nc2cccc(N3CCC(c4ccc(F)cc4)C3)n2)COc2cc3c(cc21)OC(F)(F)O3 (stereo partly drawn) [Example 114, (7R)-2,2-difluoro-N-{6-[3-(4-fluorophenyl)pyrrolidin-1-yl]pyridin-2-yl}-7-methyl-6,7-dihydro-2H-furo[2,3-f][1,3]benzodioxole-7-carboxamide]	750	98
CC1CN(c2cccc(NC(=O)[C@@]3(C)COc4cc5c(cc43)OC(F)(F)O5)n2)CC1C(=O)O (stereo partly drawn) [Example 116, 1-(6-{[(7R)-2,2-difluoro-7-methyl-6,7-dihydro-2H-furo[2,3-f][1,3]benzodioxole-7-carbonyl]amino}pyridin-2-yl)-4-methylpyrrolidine-3-carboxylic acid]	1100	136
C[C@]1(C(=O)Nc2cccc(N3CC4CCCC4(C(=O)O)C3)n2)COc2cc3c(cc21)OC(F)(F)O3 (stereo partly drawn) [Example 117, 2-(6-{[(7R)-2,2-difluoro-7-methyl-6,7-dihydro-2H-furo[2,3-f][1,3]benzodioxole-7-carbonyl]amino}pyridin-2-yl)hexahydrocyclopenta[c]pyrrole-3a(1H)-carboxylic acid]	1390	147
C[C@]1(C(=O)Nc2cccc(N3CCCC3)n2)COc2cc3c(cc21)OC(F)(F)O3 [Example 118, (7R)-2,2-difluoro-7-methyl-N-[6-(pyrrolidin-1-yl)pyridin-2-yl]-6,7-dihydro-2H-furo[2,3-f][1,3]benzodioxole-7-carboxamide]	1220	123
C[C@]1(C(=O)Nc2cccc(N3CCCCC3)n2)COc2cc3c(cc21)OC(F)(F)O3 [Example 119, (7R)-2,2-difluoro-7-methyl-N-[6-(piperidin-1-yl)pyridin-2-yl]-6,7-dihydro-2H-furo[2,3-f][1,3]benzodioxole-7-carboxamide]	1180	136
Cc1cc(C(=O)O)ccc1-c1cccc(NC(=O)[C@@]2(C)COc3cc4c(cc32)OC(F)(F)O4)n1 [Example 120, 4-(6-{[(7R)-2,2-difluoro-7-methyl-6,7-dihydro-2H-furo[2,3-f][1,3]benzodioxole-7-carbonyl]amino}pyridin-2-yl)-3-methylbenzoic acid]	1440	253
Cc1c(C(=O)O)cccc1-c1cccc(NC(=O)[C@@]2(C)COc3cc4c(cc32)OC(F)(F)O4)n1 [Example 122, 3-(6-{[(7R)-2,2-difluoro-7-methyl-6,7-dihydro-2H-furo[2,3-f][1,3]benzodioxole-7-carbonyl]amino}pyridin-2-yl)-2-methylbenzoic acid]	1940	173
C[C@]1(C(=O)Nc2cccc(-c3ccc(C(=O)O)cc3F)n2)COc2cc3c(cc21)OC(F)(F)O3 [Example 123, 4-(6-{[(7R)-2,2-difluoro-7-methyl-6,7-dihydro-2H-furo[2,3-f][1,3]benzodioxole-7-carbonyl]amino}pyridin-2-yl)-3-fluorobenzoic acid]	1530	189
Cc1ccc(NC(=O)[C@@]2(C)COc3cc4c(cc32)OC(F)(F)O4)nc1-c1cccc(S(=O)(=O)NC2CC2)c1 [Example 124, (7R)—N-{6-[3-(cyclopropylsulfamoyl)phenyl]-5-methylpyridin-2-yl}-2,2-difluoro-7-methyl-6,7-dihydro-2H-furo[2,3-f][1,3]benzodioxole-7-carboxamide]	740	124
C[C@]1(C(=O)Nc2cccc(-c3cccc(C(=O)O)c3F)n2)COc2cc3c(cc21)OC(F)(F)O3 [Example 125, 3-(6-{[(7R)-2,2-difluoro-7-methyl-6,7-dihydro-2H-furo[2,3-f][1,3]benzodioxole-7-carbonyl]amino}pyridin-2-yl)-2-fluorobenzoic acid]	1390	136
